The source of these data is patent EP1227090A1, “AMINE DERIVATIVES” (Tadeka Chemical Industries, Ltd., priority 1999, dated 2001).

Settings in all cases: 125I-somatostatin-14 binding inhibition, CHO cell membrane fraction, 25°C for 60 minutes, Hill plots
The target in test [1] is T1, human somatostatin receptor protein subtype 2 (SSTR2) (Homo sapiens, UniProt P30874).
T1 construct: expressed in transfected cells; host or cells: CHO (dhfr-) cells, strain SSTR2-HS5-9, plasmid pAC01 (pAKKO-111 vector); membrane fraction
T1 sequence (P30874 whole entry): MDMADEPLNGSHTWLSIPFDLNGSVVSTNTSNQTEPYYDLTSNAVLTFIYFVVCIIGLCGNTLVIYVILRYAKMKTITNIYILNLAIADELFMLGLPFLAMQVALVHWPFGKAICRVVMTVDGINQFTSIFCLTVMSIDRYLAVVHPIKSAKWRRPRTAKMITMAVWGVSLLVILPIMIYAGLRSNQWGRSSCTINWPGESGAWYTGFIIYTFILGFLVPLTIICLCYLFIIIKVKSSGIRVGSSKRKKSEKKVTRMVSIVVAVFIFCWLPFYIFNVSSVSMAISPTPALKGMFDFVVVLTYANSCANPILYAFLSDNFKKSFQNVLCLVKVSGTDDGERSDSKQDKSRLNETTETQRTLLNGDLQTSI
In words: Measurement of the binding inhibition rate of 125I-Somatostatin (SSTR2). Here is the method:
1 x 10^6 CHO (dhfr^-) cells were cultured for 24 hours in HAM F12 medium containing 10% bovine fetal serum on a laboratory dish of 8 cm in diameter. To the cells was transfected 10 µg of the human SSTR2 cDNA expression plasmid, pA-C01, obtained under the above (5) by the calcium phosphate method (Cell Phect Transfection Kit: Pharmacia). The medium was switched to DMEM medium containing 10% dialyzed bovine fetal serum 24 hours after the transfection to select the colony-forming cells (i.e. DHFR^+ cells) in this medium. Further, the selected cells were cloned from a single cell by the limiting dilution method and a cell strain which highly expresses human SSTR2, SSTR2-HS5-9, was selected.
(§1) Measurement of the binding inhibition rate of ^125I-Somatostatin
(§2) The receptor binding inhibition rate (%) of the subject compound was calculated using each of the membrane fractions prepared in Experimental Examples 1 and 2.
(§3) The membrane fraction was diluted with a buffer solution for assay to adjust the concentration to 3 µg/ml. The diluate was placed in tubes each in quantity of 173 µl. To this were simultaneously added 2 µl of a solution of a subject compound in DMSO and 25 µl of a 200 pM radioisotope-labeled somatostatin-14 (^125I-somatostatin-14: Amersham). For measurement of the maximum binding, a reaction mixture added with 2 µl of DMSO and 25 µl of a 200 pM ^125I-somatostatin was prepared. For measurement of non-specific binding, a reaction mixture added with 2 µl of a 100 µM somatostatin solution in DMSO and 25 µl of a 200 pM ^125I-somatostatin solution was prepared at the same time. The mixtures were allowed to react at 25°C for 60 minutes. Then, the reaction mixture was filtered by aspiration using a Whatman glass filter (GF-B) treated with polyethylenimine. After filtration, the radioactivity of ^125I-somatostatin-14 remaining on the filter paper was measured by a γ-counter. The binding inhibition rate (%) of each subject compound was calculated by the following formula: (TB-SB)/(TB-NSB) x 100 [formula] SB: radioactivity when a compound was added TB: maximum binding radioactivity NSB: non-specific binding radioactivity
(§4) The binding inhibition rates were measured by changing the concentrations of the subject compound, and the 50% inhibiting concentration of the subject compound (IC50 value) was calculated by the Hill plots.

The target in test [2] is T2, human somatostatin receptor protein subtype 3 (SSTR3) (Homo sapiens, UniProt P32745).
T2 construct: expressed in transfected cells; host or cells: CHO (dhfr-) cells, strain SSTR3-15-19, plasmid pA1-11-SSTR3 (pAKKO-111 vector); membrane fraction
T2 sequence (P32745 whole entry): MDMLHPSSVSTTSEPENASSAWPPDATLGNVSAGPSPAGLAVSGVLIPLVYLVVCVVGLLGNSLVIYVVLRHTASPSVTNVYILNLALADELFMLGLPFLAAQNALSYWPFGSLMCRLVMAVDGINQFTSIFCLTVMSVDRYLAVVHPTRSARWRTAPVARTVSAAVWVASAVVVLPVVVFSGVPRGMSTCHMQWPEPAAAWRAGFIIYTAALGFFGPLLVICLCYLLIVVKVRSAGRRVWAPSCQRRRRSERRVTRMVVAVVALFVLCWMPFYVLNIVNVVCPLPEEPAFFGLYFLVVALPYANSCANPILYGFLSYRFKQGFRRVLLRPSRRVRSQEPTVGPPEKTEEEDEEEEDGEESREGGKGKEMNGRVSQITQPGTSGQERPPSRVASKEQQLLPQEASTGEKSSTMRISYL
Description: Measurement of the binding inhibition rate of 125I-Somatostatin (SSTR3). Here is the method:
1 x 10^6 CHO (dhfr^-) cells were cultured for 24 hours in HAM F12 medium containing 10% bovine fetal serum on a laboratory dish of 8 cm in diameter. The cells were transfected by 10 µg of the human SSTR3 DNA expression plasmid, pA-1-11-SSTR3, obtained under the above (5) using the calcium phosphate method. The medium was switched to DMEM medium containing 10% dialyzed bovine fetal serum 24 hours after the transfection to select the colony-forming cells (i.e. DHFR^+ cells) in this medium. Further, the selected cells were cloned from a single cell by the limiting dilution method and the somatostatin receptor protein expression activity of these cells was measured by the binding assay mentioned under the above (3). Thus, a highly somatostatin-binding cell strain, SSTR3-15-19, was selected.
as §1, §2, §3, §4

For test [3], the target named is T3, human somatostatin receptor protein subtype 5 (SSTR5) (Homo sapiens, UniProt P35346).
T3 construct: expressed in transfected cells; host or cells: CHO (dhfr-) cells, strain SSTR5-32-4, plasmid pA1-11-SSTR5 (pAKKO-111 vector); membrane fraction
T3 sequence (P35346 whole entry): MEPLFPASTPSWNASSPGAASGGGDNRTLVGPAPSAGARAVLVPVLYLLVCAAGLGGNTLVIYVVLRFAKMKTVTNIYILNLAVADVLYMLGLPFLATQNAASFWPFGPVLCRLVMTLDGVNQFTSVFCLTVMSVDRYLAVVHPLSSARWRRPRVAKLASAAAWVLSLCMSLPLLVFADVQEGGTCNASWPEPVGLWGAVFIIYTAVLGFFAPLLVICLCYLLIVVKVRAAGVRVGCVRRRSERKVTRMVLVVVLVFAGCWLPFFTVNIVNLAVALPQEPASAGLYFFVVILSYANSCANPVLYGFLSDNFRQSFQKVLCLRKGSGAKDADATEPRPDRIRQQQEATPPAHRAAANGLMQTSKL
Description: Measurement of the binding inhibition rate of 125I-Somatostatin (SSTR5). On the procedure:
1 x 10^6 CHO (dhfr^-) cells were cultured for 24 hours in HAM F12 medium containing 10% bovine fetal serum on a laboratory dish of 8 cm in diameter. To the cells was transfected 10 µg of the human SSTR5 cDNA expression plasmid, pA-1-11-SSTR5, obtained under the above (11) by the calcium phosphate method. The medium was switched to DMEM medium containing 10% dialyzed bovine fetal serum 24 hours after the transfection to select the colony-forming cells (i.e. DHFR^+ cells) in this medium. Further, the selected cells were cloned from a single cell by the limiting dilution method and the somatostatin receptor protein expression activity of these cells was measured by binding assay mentioned under the above (3). Thus, a highly somatostatin-biding cell strain, SSTR5-32-4, was selected.
as §1, §2, §3, §4

As usually defined, the IC50 is the concentration that gives 50% inhibition. Read a high IC50 as weaker potency. As for `CN(C)CC1Cc2cc(Cl)ccc2N(C(=O)[C@@H](Cc2c[nH]c3ccccc23)NC(=O)C2CCN(C(=O)c3cc4ccccc4[nH]3)CC2)C1` (stereo partly drawn) [Example 14, N-[(1R)-2-[6-chloro-3-(R,S)-[(dimethylamino)methyl]-1,2,3,4-tetrahydro-1-quinolinyl]-1-(1-indol-3-ylmethyl)-2-oxoethyl]-1-(1-indol-2-ylcarbonyl)-4-piperidinecarboxamide], the IC50 is 0.6 nM in test [1], 70 nM in test [2] and 300 nM in test [3].

In the case of `CN(C)C[C@H]1Cc2cc(Cl)ccc2N(C(=O)[C@@H](Cc2c[nH]c3ccccc23)NC(=O)CCC2CCN(C(=O)c3ccccc3)CC2)C1` [Example 31, 3-(1-benzoyl-4-piperidinyl)-N-[(1R)-2-[(3R)-6-chloro-3-[(dimethylamino)methyl]-1,2,3,4-tetrahydro-1-quinolinyl]-1-(1-indol-3-ylmethyl)-2-oxoethyl]propanamide], the concentration for half-maximal inhibition (IC50) is 2 nM in test [1], 60 nM in test [2] and 300 nM in test [3].

For the compound `CN(C)C[C@H]1Cc2cc(Cl)ccc2N(C(=O)[C@@H](Cc2c[nH]c3ccccc23)NC(=O)C2CCN(C(=O)c3cc4ccccc4n3C)CC2)C1` [Example 51, N-[(1R)-2-[(3R)-6-chloro-3-[(dimethylamino)-methyl]-1,2,3,4-tetrahydro-1-quinolinyl]-1-(1-indol-3-ylmethyl)-2-oxoethyl]-1-(1-methylindol-2-ylcarbonyl)-4-piperidinecarboxamide], the IC50 in test [1] is 0.3 nM; in test [2], 80 nM; in test [3] it was 400 nM.

Turning to `CN(C)C[C@H]1Cc2cc(Cl)ccc2N(C(=O)[C@@H](Cc2c[nH]c3ccccc23)NC(=O)N2CCC(C(=O)c3ccc(Cl)cc3)CC2)C1` [Example 130, 4-(4-chlorobenzoyl)-N-[(1R)-2-[(3R)-6-chloro-3-[(dimethylamino)methyl]-1,2,3,4-tetrahydro-1-quinolinyl]-1-(1-indol-3-ylmethyl)-2-oxoethyl]-1-piperidinecarboxamide], the figures for the IC50 in test [1], in test [2] and in test [3] were 2 nM, 40 nM and 400 nM, respectively.

On to `CN(C)C[C@H]1Cc2cc(Cl)ccc2N(C(=O)[C@@H](Cc2c[nH]c3ccccc23)NC(=O)N2CCC(Oc3ccccc3)CC2)C1` [Example 145-2, N-[(1R)-2-[(3R)-6-chloro-3-[(dimethylamino)methyl]-1,2,3,4-tetrahydro-1-quinolinyl]-1-(1H-indol-3-ylmethyl)-2-oxoethyl]-4-phenoxyl-1-piperidinecarboxamide], for which the results for the IC50 in test [1], in test [2] and in test [3] were 1 nM, 10 nM and 200 nM, respectively.
